Here are results for 39 compounds from patent publication US20240002388A1, “PYRIMIDINONE COMPOUNDS AND USES THEREOF” (HUTCHISON MEDIPHARMA LIMITED, priority 2020, published 2024).

Each structure is given as a SMILES string.

Chain of RIPK1 recombination protein (Q13546 other isoform, or with tags, fused parts or gaps): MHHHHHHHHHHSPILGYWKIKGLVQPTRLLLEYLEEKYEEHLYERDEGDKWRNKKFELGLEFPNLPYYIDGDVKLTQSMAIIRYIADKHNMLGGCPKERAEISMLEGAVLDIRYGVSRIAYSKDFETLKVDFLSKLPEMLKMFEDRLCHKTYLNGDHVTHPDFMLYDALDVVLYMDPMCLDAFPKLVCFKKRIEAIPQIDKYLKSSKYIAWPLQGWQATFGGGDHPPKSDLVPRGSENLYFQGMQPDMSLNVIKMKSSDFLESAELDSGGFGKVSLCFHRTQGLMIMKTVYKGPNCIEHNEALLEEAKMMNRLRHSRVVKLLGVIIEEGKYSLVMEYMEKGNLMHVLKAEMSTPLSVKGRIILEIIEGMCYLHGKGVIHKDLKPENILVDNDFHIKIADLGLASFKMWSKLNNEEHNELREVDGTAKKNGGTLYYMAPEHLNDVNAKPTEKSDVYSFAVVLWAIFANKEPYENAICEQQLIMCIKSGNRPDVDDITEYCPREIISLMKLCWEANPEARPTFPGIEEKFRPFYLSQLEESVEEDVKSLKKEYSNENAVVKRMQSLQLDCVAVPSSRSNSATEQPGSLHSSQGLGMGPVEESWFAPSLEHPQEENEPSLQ

This assay concerns the target RIPK1 recombination protein (Homo sapiens (Human), UniProt Q13546). Nature of the assay: RIPK1 kinase activity assay (ADP-Glo). The format is biochemical. Conditions: RIPK1 kinase activity, ADP-Glo, 10 μM ATP. As to the method: RIPK1 recombination protein: synthesized by Shanghai Medicilon Inc. under the commission by Hutchison MediPharma Limited (50 g of cell pellet was resuspended in 250 mL of lysis buffer (50 mM Tris, pH 7.5, 250 mM NaCl, 1 mM DTT, protease inhibitor 1:50), the cells were ultrasonically lysed using a sonicator (the power set to 4) on ice for 3×30 minutes; then centrifugation was carried out at 4° C., at 15,000 g for 30 minutes to clarify the suspension, the soluble pellet was resuspended into 10 mL of glutathione agarose, and incubated at 4° C. for 2 hours; then the beads were loaded into the column and washed with lysis buffer (no protease inhibitors) to baseline, and eluted with 20 mM of reduced glutathione (50 mM Tris, pH 8). The fractions identified by SDS-PAGE as containing the protein of interest were collected (10 mL of total volume), concentrated to about 5 mL and loaded into 300 mL superdex75 column (GE Healthcare) equilibrated with buffer (50 mM Tris, pH 7.5, 150 mM NaCl, 1 mM DTT, 10% glycerol, pH 7.5). RIP1 protein was eluted as a dimer from the superdex75 column. The protein concentration was determined by the Bradford assay using BSA as the standard. The yield was 12.5 mg at 0.63 mg/mL. The protein was aliquoted and frozen at −80° C. for later use.
ADP-Glo Kinase kit can be used to measure ADP level in kinase activity assay so as to distinguish the inhibitory effects of different compounds on RIPK1 kinase activity. The ADP-Glo assay was usually divided into three steps. Firstly, the kinase converted ATP to ADP and phosphorylated the substrate at the same time; secondly, ATP digestion reagent was added to degrade all ATP in the reaction system; finally, a detection reagent was added to reduce ADP to ATP, and energy from ATP was transferred to […] which thus emitting a chemical luminescence that can be detected. Assay procedure can refer to manufacture's technical manual.
(2) Reagent Preparation: • 1.33× kinase buffer: 5× kinase buffer stock (250 mM of NaCl, 150 mM of MgCl2, 2.5 mg/ml BSA (bovine serum albumin), 0.1% CHAPS (3-[(3-cholamidopropyl)-dimethyl-ammonio]-1-propane sulfonate), and 5 mM of dithiothreitol) was diluted with water to 1.33× kinase buffer; • RIPK1 enzyme solution: the kinase was dissolved in 1.33× kinase buffer to make 40 nM as the final working concentration; • ATP solution: 10 mM ATP stock solution in water was dissolved in 1.33× kinase buffer to make 10 μM as the final working concentration; • 4× compound preparation: the compound was diluted in a 3-fold gradient, and finally 4% DMSO aqueous solution containing different concentrations of the compound was obtained. The final concentrations of the test compound were 10, 3.33, 1.11, 0.37, 0.12, 0.04, 0.014, and 0.005 μM.
The assay set up two control groups, one was 100% inhibition group (no enzyme treatment), another was 0% inhibition group (no inhibitor treatment), each control group contained 8 replicate wells. 2.5 μl of serially diluted compound was added to each well of a 384-well plate, with double replicate wells, and 4% DMSO solution was added to control wells. Then 5 μl of RIPK1 enzyme solution was added to each well except 100% inhibition control, 5 ul of buffer was added to 100% inhibition control, after that, 2.5 μl of ATP solution was added to all wells, the plate was vibrated at 1000 rpm for 30 seconds to perform transient centrifuge; finally the 384-well assay plate was put in the shaking incubator, and incubated at room temperature for 3 hours. After the enzymatic reaction was completed, 5 μl of ATP depletion reagent was added to each well, the mixture was centrifuged transiently, then the 384-well assay plate was put in the shaking incubator, and incubated at room temperature for 1 hour. 5 μl of ADP detection reagent was added to each well, and the mixture was centrifuged transiently, and incubated at room temperature for 0.5 hour. […]
A general note: In ADP-Glo the light output rises with the ADP produced.
In the case of `CC(C)n1ncc2cnc(C(=O)NC3(c4ccc(-c5cncn(C)c5=O)c(F)c4)CC3)nc21` [Compound 23, N-(1-(3-fluoro-4-(1-methyl-6-oxo-1,6-dihydropyrimidin-5-yl)phenyl)cyclopropyl)-1-isopropyl-1H-pyrazolo[3,4-d]pyrimidine-6-carboxamide], the IC50 amounted to 49 nM.
To `CC(C)n1cncc(-c2ccc(C3(NC(=O)c4ncc5cnn([C@H](C)C6CC6)c5n4)CC3)cc2)c1=O` [Compound 89, (R)-1-(1-cyclopropylethyl)-N-(1-(4-(1-i-propyl-6-oxo-1,6-dihydropyrimidin-5-yl)phenyl)cyclopropyl)-1H-pyrazolo[3,4-d]pyrimidine-6-carboxamide] belongs 48 nM; to `CC(C)n1ncc2cnc(C(=O)NC3(c4ccc(-c5cncn(CC6CC6)c5=O)cc4)CC3)nc21` [Compound 36], 42 nM.
Turning to `CC(C)n1cncc(-c2ccc(C3(NC(=O)c4ncc5cnn(C(C)C)c5n4)CC3)cc2Cl)c1=O` [Compound 33], the IC50 worked out at 59 nM.
`Cn1cncc(-c2ccc(C3(NC(=O)c4nnc(Cc5c(F)cccc5F)[nH]4)CC3)cc2)c1=O` [Compound 18]: the IC50 was found to be 38 nM.
The same measure for `CCn1cncc(-c2ccc(C3(NC(=O)c4ncc5cnn(C(C)C)c5n4)CC3)cc2)c1=O` [Compound 37]: 41 nM; for `CC(C)n1ncc2cnc(C(=O)NC3(c4ccc(-c5cncn(C)c5=O)c(Cl)c4)CC3)nc21` [Compound 25]: 53 nM.
On to `CC(C)n1cncc(-c2ccc(C3(NC(=O)c4ncc5cnn(CC6CC6)c5n4)CC3)cc2)c1=O` [Compound 61], for which the IC50 is 14 nM.
As for `CC(C)n1cncc(-c2ccc(C3(NC(=O)c4ncc5cnn(C6COC6)c5n4)CC3)cc2)c1=O` [Compound 60], the IC50 was 59 nM.
The same measure for `CC(C)n1ncc2cnc(C(=O)NC3(c4ccc(-c5cncn(C6COC6)c5=O)cc4)CC3)nc21` [Compound 41]: 61 nM; for `CC(C)n1ncc2cnc(C(=O)NC3(c4ccc(-c5cncn(C)c5=O)cn4)CC3)nc21` [Compound 2]: 63 nM; for `Cn1cncc(-c2ccc(C3(NC(=O)c4cc(Cc5ccccc5)on4)CC3)cc2)c1=O` [Compound 5]: 57 nM.
The same measure for `CC(C)n1ncc2cnc(C(=O)NC3(c4ccc(-c5cncn([C@H](C)C(F)(F)F)c5=O)cc4)CC3)nc21` [Compound 39]: 59 nM.
As for `CC(C)n1ncc2cnc(C(=O)NC3(c4ccc(-c5cncn([C@@H]6C[C@@H]6F)c5=O)cc4)CC3)nc21` [Compound 69], the IC50 stood at 21 nM.
To `Cn1cncc(-c2ccc(C3(NC(=O)c4nnc(Cc5ccccc5)o4)CC3)cc2)c1=O` [Compound 11] belongs 38 nM; to `Cn1cncc(-c2ccc(C3(NC(=O)c4nc5n(n4)[C@@H](c4ccccc4)CC5)CC3)cc2)c1=O` [Compound 54, (R)—N-(1-(4-(1-methyl-6-oxo-1,6-dihydropyrimidin-5-yl)phenyl)cyclopropyl)-5-phenyl-6,7-dihydro-5H-pyrrolo[1,2-b][1,2,4]triazole-2-carboxamide], 27 nM; to `CC(C)n1cncc(-c2ccc(C3(NC(=O)c4nc5n(n4)[C@@H](c4ccccc4)CC5)CC3)cc2)c1=O` [Compound 15], 30 nM.
As for `Cn1cncc(-c2ccc(C3(NC(=O)c4noc(Cc5ccccc5)n4)CC3)cc2)c1=O` [Compound 9], the IC50 turned out to be 37 nM.
Regarding `CC(C)n1ncc2cnc(C(=O)NC3(c4ccc(-c5cncn(C6CC(F)(F)C6)c5=O)cc4)CC3)nc21` [Compound 65], the IC50 worked out at 36 nM.
The same measure for `CC(C)n1ncc2cnc(C(=O)NC3(c4ccc(-c5cncn(CC6CCC6)c5=O)cc4)CC3)nc21` [Compound 66]: 48 nM; for `Cn1cncc(-c2ccc(C3(NC(=O)c4nnc(Cc5ccccc5)[nH]4)CC3)cc2)c1=O` [Compound 3]: 35 nM.
On to `CC(C)n1ncc2cnc(C(=O)NC3(c4ccc(-c5cncn(C6(C)CCC6)c5=O)cc4)CC3)nc21` [Compound 79], for which the IC50 was 21 nM.
The same measure for `CC(C)n1ncc2cnc(C(=O)NC3(c4ccc(-c5cncn(C)c5=O)cc4)CC3)cc21` [Compound 28, 1-isopropyl-N-(1-(4-(1-methyl-6-oxo-1,6-dihydropyrimidin-5-yl)phenyl)cyclopropyl)-1H-pyrazolo[4,3-c]pyridine-6-carboxamide]: 95 nM; for `C[C@H](n1cncc(-c2ccc(C3(NC(=O)c4ncc5cnn(CC6CC6)c5n4)CC3)cc2)c1=O)C(F)(F)F` [Compound 68]: 43 nM; for `CC(C)n1cncc(-c2ccc(C3(NC(=O)c4ncc5cnn(-c6ccccn6)c5n4)CC3)cc2)c1=O` [Compound 63]: 37 nM.
The same measure for `C[C@@H](n1cncc(-c2ccc(C3(NC(=O)c4ncc5cnn(CC6CC6)c5n4)CC3)c(F)c2)c1=O)C(F)(F)F` [Compound 76]: 51 nM; for `CC(C)n1cncc(-c2ccc(C3(NC(=O)c4ncc5cnn(C(C)C)c5n4)CC3)cc2F)c1=O` [Compound 35]: 47 nM.
As for `CC(C)Cc1nc(C(=O)NC2(c3ccc(-c4cncn(C)c4=O)cc3)CC2)ncc1Cl` [Compound 6], the IC50 worked out at 56 nM.
The same measure for `CC[C@H](C)n1cncc(-c2ccc(C3(NC(=O)c4ncc5cnn(C(C)C)c5n4)CC3)cc2)c1=O` [Compound 43]: 32 nM; for `CC(C)n1cncc(-c2ccc(C3(NC(=O)c4ncc5cnn(CC6CCC6)c5n4)CC3)cc2)c1=O` [Compound 62]: 21 nM; for `CC(C#N)n1cncc(-c2ccc(C3(NC(=O)c4ncc5cnn(C(C)C)c5n4)CC3)cc2)c1=O` (stereo in doubt) [Compound 82, (R)—N-(1-(4-(1-(1-cyanoethyl)-6-oxo-1,6-dihydropyrimidin-5-yl)phenyl)cyclopropyl)-1-i-propyl-1H-pyrazolo[3,4-d]pyrimidine-6-carboxamide]: 51 nM.
To `CC(C)n1ncc2cnc(C(=O)NC3(c4ccc(-c5cncn(CC6CC6)c5=O)cc4F)CC3)nc21` [Compound 74] belongs 62 nM.
To `CC(C)n1ncc2cnc(C(=O)NC3(c4ccc(-c5cncn([C@@H](C)C(F)(F)F)c5=O)cc4F)CC3)nc21` (stereo in doubt) [Compound 47] belongs 29 nM; to `CC(C)n1ncc2cnc(C(=O)NC3(c4ccc(-c5cncn(CC(F)(F)F)c5=O)cc4)CC3)nc21` [Compound 38], 48 nM.
In the case of `C[C@@H](n1cncc(-c2ccc(C3(NC(=O)c4ncc5cnn(CC6CC6)c5n4)CC3)cc2)c1=O)C(F)(F)F` [Compound 70], the IC50 came to 51 nM.
Consider `CC(C)n1cncc(-c2ccc(C3(NC(=O)c4ncc5cnn(C(C)C)c5n4)CC3)cc2)c1=O` [Compound 29, 1-isopropyl-N-(1-(4-(1-isopropyl-6-oxo-1,6-dihydropyrimidin-5-yl)phenyl)cyclopropyl)-1H-pyrazolo[3,4-d]pyrimidine-6-carboxamide], for which the half-maximal inhibitory concentration (IC50) amounted to 19 nM.
Turning to `CC(C)n1cncc(-c2ccc(C3(NC(=O)c4ncc5cnn(C(C)C6CC6)c5n4)CC3)cc2)c1=O` (racemic) [Compound 59, 1-(1-cyclopropylethyl)-N-(1-(4-(1-i-propyl-6-oxo-1,6-dihydropyrimidin-5-yl)phenyl)cyclopropyl)-1H-pyrazolo[3,4-d]pyrimidine-6-carboxamide], the IC50 amounted to 26 nM.
To `CC(C)n1ncc2cnc(C(=O)NC3(c4ccc(-c5cncn(C6(C)CC6)c5=O)cc4)CC3)nc21` [Compound 78] belongs 33 nM; to `CC(C)Cn1cncc(-c2ccc(C3(NC(=O)c4ncc5cnn(C(C)C)c5n4)CC3)cc2)c1=O` [Compound 45], 40 nM.

For orientation: IC50 means the concentration that gives 50% inhibition.
